The results in this text go back to US20130040978A1 (priority 2010, published 2013).

Structures are written as SMILES. Counter-ions that a name gives are not always drawn.

The target of test [1] is T1, SSTR5 (Homo sapiens, UniProt P35346). As to the kind of experiment: SSTR5 receptor-ligand binding assay, CHO-K1 cell membranes, 125I-SRIF radioligand. More on the design: expressed in transfected cells. Particulars: Table 4, read-out: Bnd IC50. As to the method:
The receptor-ligand binding assays of all 5 subtype of SSTRs were performed with membranes isolated from Chinese hamster ovary (CHO)-K1 cells stably expressing the cloned human somatostatin receptors in 96-well format as previous reported. (Yang et al. PNAS 95:10836-10841, (1998), Birzin et al. Anal. Biochem. 307:159-166, (2002)).
The stable cell lines for SSTR1-SSTR5 were developed by stably transfecting with DNA for all five SSTRs using Lipofectamine. Neomycin-resistant clones were selected and maintained in medium containing 400 μg/mL G418 (Rohrer et al. Science 282:737-740, (1998)). Binding assays were performed using (3-125I-Tyr11)-SRIF-14 or (3-125I-Tyrl 1)-SRIF-28 as the radioligand (used at 0.1 nM) and The Packard Unifilter assay plate. The assay buffer consisted of 50 mM TrisHCl (pH 7.8) with 1 mM EGTA, 5 mM MgCl2, leupeptin (10 μg/mL), pepstatin (10 μg/mL), bacitracin (200 μg/mL), and aprotinin (0.5 μg/mL). CHO-K1 cell membranes, radiolabeled somatostatin, and unlabeled test compounds were resuspended or diluted in this assay buffer. Unlabeled test compounds were examined over a range of concentrations from 0.01 nM to 10,000 nM. The Ki values for compounds were determined as described by Cheng and Prusoff Biochem Pharmacol. 22:3099-3108 (1973).

For test [2], the target named is T1, SSTR5. As to the kind of experiment: Functional assay of inhibition of SSTR5 mediated cyclic AMP production in SSTR5 expressing CHO cells. The format is cell-based, human. The following applies: forskolin (FSK) plus SS-28, read-out: cAMP IC50.

T1 sequence (P35346 whole entry): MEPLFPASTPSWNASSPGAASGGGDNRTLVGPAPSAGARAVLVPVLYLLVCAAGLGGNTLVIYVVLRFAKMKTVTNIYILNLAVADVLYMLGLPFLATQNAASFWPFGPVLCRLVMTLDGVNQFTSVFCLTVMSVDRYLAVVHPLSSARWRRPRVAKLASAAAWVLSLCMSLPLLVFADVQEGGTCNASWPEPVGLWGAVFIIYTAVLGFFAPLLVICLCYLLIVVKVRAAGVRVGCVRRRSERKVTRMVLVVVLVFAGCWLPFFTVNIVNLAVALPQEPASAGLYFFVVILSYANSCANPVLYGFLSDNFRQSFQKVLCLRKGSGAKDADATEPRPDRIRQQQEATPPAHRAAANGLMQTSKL

One may read the IC50 as the concentration that gives 50% inhibition. For the compound `CC(C)(C)n1cc(CN2CCC3(CC2)CC(c2ccc(C(=O)O)cc2)=NO3)c(-c2ccc(F)c(Cl)c2)n1` [Example 24], the figures for the IC50 at SSTR5 [1] and at SSTR5 [2] were 2.3 nM and 1.8 nM, respectively.
Regarding `CCOc1ccc(-c2ccc(F)c(F)c2F)c(CN2CCC3(CC2)CC(c2ccc(C(=O)O)cn2)=NO3)c1` [Example 30, 6-{8-[(4-Ethoxy-2′,3′,4′-trifluorobiphenyl-2-yl)methyl]-1-oxa-2,8-diazaspiro[4.5]dec-2-en-3-yl}pyridine-3-carboxylic acid], the IC50 on SSTR5 [1] stood at 0.41 nM; on SSTR5 [2] it was 0.76 nM.
Take `CCOc1cc(CN2CCC3(CC2)CC(c2ccc(C(=O)O)cc2)=NO3)c(-c2ccc(F)nc2)cc1C` [Example 26, 4-{8-[5-Ethoxy-2-(6-fluoropyridin-3-yl)-4-methylbenzyl]-1-oxa-2,8-diazaspiro[4.5]dec-2-en-3-yl}benzoic acid]: the IC50 on SSTR5 [1] came out at 0.33 nM; at SSTR5 [2] it was 0.32 nM.
As for `CCOc1cc(CN2CCC3(CC2)CC(c2ccc(C(=O)O)cc2)=NO3)c(-c2nccs2)cc1C` [Example 19, 4-{8-[5-Ethoxy-4-methyl-2-(1,3-thiazol-2-yl)benzyl]-1-oxa-2,8-diazaspiro[4.5]dec-2-en-3-yl}benzoic acid], the IC50 on SSTR5 [1] amounted to 1.5 nM; at SSTR5 [2], 0.94 nM.
Regarding `CC(C)(C)n1cc(CN2CCC3(CC2)CC(c2ccc(C(=O)O)cc2)=NO3)c(-c2ccc(F)c(F)c2F)n1` [Example 3, 4-(8-{[1-tert-Butyl-3-(2,3,4-trifluorophenyl)-1H-pyrazol-4-yl]methyl})-1-oxa-2,8-diazaspiro[4.5]dec-2-en-3-yl)benzoic acid, TFA salt], the IC50 was 2.8 nM at SSTR5 [1] and 8.2 nM on SSTR5 [2].
As to `CCOc1cc(CN2CCC3(CC2)CC(c2ccc(C(=O)O)cc2)=NO3)cc(OCC)c1-c1ccc(F)cc1` [Example 1, 4-{8-[(2,6-Diethoxy-4′-fluorobiphenyl-4-yl)methyl]-1-oxa-2,8-diazaspiro[4.5]dec-2-en-3-yl}benzoic acid, TFA salt], the IC50 amounted to 1.2 nM at SSTR5 [1] and 0.72 nM at SSTR5 [2].
Take `CCOc1ccc(-c2cc(F)c(F)cc2F)c(CN2CCC3(CC2)CC(c2ccc(C(=O)O)cc2)=NO3)c1` [Example 10, 4-{8-[(4-Ethoxy-2′,4′,5′-trifluorobiphenyl-2-yl)methyl]-1-oxa-2,8-diazaspiro[4.5]dec-2-en-3-yl}benzoic acid]: the IC50 turned out to be 1.8 nM on SSTR5 [1] and 5.7 nM on SSTR5 [2].
Take `CCOc1ccc(-c2ccc(F)cc2F)c(CN2CCC3(CC2)CC(c2ccc(C(=O)O)cc2)=NO3)c1` [Example 4, 4-{8-[(4-Ethoxy-2′,4′-difluorobiphenyl-2-yl)methyl]-1-oxa-2,8-diazaspiro[4.5]dec-2-en-3-yl}benzoic acid]: the concentration for half-maximal inhibition (IC50) at SSTR5 [1] came out at 2.9 nM; on SSTR5 [2], 3 nM.
Take `CCOc1cc(CN2CCC3(CC2)CC(c2ccc(C(=O)O)cn2)=NO3)cc(OCC)c1-c1ccc(F)cc1` [Example 25, 6-{8-[(2,6-Diethoxy-4′-fluorobiphenyl-4-yl)methyl]-1-oxa-2,8-diazaspiro[4.5]dec-2-en-3-yl}pyridine-3-carboxylic acid]: the results for the IC50 on SSTR5 [1] and at SSTR5 [2] were 1.2 nM and 2.6 nM, respectively.
On to `CC(C)Oc1ccc(-c2ccc(F)c(F)c2)c(CN2CCC3(CC2)CC(c2ccc(C(=O)O)cc2)=NO3)c1` [Example 13, 4-(8-{[3′,4′-Difluoro-4-(propan-2-yloxy)biphenyl-2-yl]methyl}-1-oxa-2,8-diazaspiro[4.5]dec-2-en-3-yl)benzoic acid], for which the IC50 at SSTR5 [1] and on SSTR5 [2] was 2.9 nM throughout.
For `CCOc1cc(CN2CCC3(CC2)CC(c2ccc(C(=O)O)cc2)=NO3)cc(OCC)c1OCC(F)(F)F` [Example 5, 4-{8-[3,5-Diethoxy-4-(2,2,2-trifluoroethoxy)benzyl]-1-oxa-2,8-diazaspiro[4.5]dec-2-en-3-yl}benzoic acid], the IC50 was found to be 6 nM on SSTR5 [1] and 2.4 nM at SSTR5 [2].
